# Results reported in patent US20110076272A1, “THERAPEUTIC METHODS AND COMPOSITIONS” (priority 2009, published 2011).
# T1: lysyl oxidase-like 4 (LOXL4) (UniProt Q96JB6 25-756, limits assumed)
# T1 construct: Member of 'other lysyl oxidase-type enzymes'
# T1 sequence (looked up): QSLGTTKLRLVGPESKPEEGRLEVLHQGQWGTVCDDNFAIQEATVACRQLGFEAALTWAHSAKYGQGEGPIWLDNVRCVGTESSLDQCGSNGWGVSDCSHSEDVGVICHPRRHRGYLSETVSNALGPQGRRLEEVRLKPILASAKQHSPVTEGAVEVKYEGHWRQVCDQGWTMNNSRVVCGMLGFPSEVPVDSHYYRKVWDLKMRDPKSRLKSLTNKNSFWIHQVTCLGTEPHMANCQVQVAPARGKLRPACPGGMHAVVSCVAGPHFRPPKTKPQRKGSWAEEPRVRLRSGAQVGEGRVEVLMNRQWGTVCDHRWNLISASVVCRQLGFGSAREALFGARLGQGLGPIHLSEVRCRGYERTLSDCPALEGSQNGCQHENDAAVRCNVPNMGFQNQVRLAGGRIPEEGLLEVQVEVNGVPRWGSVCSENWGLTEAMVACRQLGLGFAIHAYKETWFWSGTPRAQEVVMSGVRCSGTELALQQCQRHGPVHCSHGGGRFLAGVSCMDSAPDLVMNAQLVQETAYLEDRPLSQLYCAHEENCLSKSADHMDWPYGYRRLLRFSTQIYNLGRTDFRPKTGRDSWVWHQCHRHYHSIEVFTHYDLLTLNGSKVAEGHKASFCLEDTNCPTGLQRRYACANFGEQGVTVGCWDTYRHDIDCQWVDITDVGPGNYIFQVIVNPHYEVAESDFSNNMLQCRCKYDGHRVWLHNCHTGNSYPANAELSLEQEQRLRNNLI
# T2: lysyl oxidase-like 3 (LOXL3) (UniProt P58215 26-753, limits assumed)
# T2 construct: Member of 'other lysyl oxidase-type enzymes'; also called LOR-2
# T2 sequence (looked up): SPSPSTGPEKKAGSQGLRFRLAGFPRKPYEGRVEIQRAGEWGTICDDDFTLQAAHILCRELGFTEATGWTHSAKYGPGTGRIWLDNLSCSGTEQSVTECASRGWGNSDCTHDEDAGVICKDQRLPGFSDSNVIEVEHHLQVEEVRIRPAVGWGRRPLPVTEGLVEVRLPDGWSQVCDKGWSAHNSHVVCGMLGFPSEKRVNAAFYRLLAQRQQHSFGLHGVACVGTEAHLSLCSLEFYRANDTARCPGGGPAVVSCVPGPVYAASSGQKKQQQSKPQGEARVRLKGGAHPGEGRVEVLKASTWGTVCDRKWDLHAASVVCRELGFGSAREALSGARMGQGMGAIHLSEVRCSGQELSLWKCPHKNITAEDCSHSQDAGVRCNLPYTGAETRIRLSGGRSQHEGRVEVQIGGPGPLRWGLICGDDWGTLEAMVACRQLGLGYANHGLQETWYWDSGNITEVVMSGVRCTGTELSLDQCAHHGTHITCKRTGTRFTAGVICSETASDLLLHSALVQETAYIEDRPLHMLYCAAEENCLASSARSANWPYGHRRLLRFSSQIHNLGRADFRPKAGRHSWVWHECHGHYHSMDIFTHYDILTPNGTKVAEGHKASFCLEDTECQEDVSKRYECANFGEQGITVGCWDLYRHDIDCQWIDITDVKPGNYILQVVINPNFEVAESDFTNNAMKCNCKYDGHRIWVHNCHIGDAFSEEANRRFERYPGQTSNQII
# T3: lysyl oxidase (LOX) (UniProt P28300 169-417, limits assumed)
# T3 construct: Member of 'other lysyl oxidase-type enzymes'
# T3 sequence (looked up): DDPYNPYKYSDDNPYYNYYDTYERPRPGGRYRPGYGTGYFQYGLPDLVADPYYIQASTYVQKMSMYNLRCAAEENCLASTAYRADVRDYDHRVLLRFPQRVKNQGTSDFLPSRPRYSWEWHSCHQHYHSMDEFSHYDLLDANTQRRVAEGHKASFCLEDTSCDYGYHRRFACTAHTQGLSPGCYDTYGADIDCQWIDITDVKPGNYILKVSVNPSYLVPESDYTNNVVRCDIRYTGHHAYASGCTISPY
# T4: human lysyl oxidase-like 2 (LOXL2) (human, UniProt Q9Y4K0 26-774)
# T4 sequence (looked up): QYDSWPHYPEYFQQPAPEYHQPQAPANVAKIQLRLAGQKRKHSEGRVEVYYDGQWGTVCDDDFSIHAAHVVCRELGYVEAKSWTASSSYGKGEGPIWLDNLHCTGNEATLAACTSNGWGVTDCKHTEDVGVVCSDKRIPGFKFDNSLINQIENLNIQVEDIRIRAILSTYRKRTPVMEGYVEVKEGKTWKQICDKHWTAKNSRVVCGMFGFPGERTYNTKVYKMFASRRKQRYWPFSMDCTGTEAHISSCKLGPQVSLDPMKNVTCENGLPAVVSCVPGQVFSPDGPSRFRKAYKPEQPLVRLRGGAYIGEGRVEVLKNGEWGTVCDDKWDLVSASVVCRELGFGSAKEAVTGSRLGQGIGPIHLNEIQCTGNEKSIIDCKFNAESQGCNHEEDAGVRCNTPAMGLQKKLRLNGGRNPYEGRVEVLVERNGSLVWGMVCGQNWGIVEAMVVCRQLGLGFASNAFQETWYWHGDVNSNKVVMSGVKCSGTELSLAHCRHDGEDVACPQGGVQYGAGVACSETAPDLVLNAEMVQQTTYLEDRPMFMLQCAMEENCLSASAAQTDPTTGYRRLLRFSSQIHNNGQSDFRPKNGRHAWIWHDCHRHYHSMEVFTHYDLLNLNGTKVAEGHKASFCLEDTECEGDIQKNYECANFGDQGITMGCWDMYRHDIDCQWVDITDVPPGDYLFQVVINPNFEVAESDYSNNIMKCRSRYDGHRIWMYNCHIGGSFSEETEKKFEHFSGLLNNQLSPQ
# B1: anti-LOXL2 monoclonal antibody AB0023 (antibody, V domains shown)
# VH: QVQLQQSGAELVRPGTSVKVSCKASGYAFTYYLIEWVKQRPGQGLEWIGVINPGSGGTNYNEKFKGKATLTADKSSSTAYMQLSSLTSDDSAVYFCARNWMNFDYWGQGTTLTVSS
# VL: DIVMTQAAPSVSVTPGESVSISCRSSKSLLHSNGNTYLYWFLQRPGQSPQFLIYRMSNLASGVPDRFSGSGSGTAFTLRISRVEAEDVGVYYCMQHLEYPYTFGGGTKLEIK
# notes: Mouse monoclonal antibody from a hybridoma, raised against full-length LOXL2 and purified from ascites; also called mouse anti-human LOXL2 antibody; LOXL2-specific monoclonal antibody
# B2: AB0024: humanized anti-LOXL2 variant of AB0023; heavy chain variable region SEQ ID NO:3, light chain SEQ ID NO:4 (antibody, listed as Mus musculus, V domains shown)
# VH: QVQLVQSGAEVKKPGASVKVSCKASGYAFTYYLIEWVRQAPGQGLEWIGVINPGSGGTNYNEKFKGRATITADKSTSTAYMELSSLRSEDTAVYFCARNWMNFDYWGQGTTVTVSS
# VL: DIVMTQTPLSLSVTPGQPASISCRSSKSLLHSNGNTYLYWFLQKPGQSPQFLIYRMSNLASGVPDRFSGSGSGTDFTLKISRVEAEDVGVYYCMQHLEYPYTFGGGTKVEIK
# modifications: Humanized heavy chain; Humanized light chain
# Assays:
# [1] = tested on: MDA-MB-435 established primary tumors; test: MDA-MB-435 established primary tumor xenograft model; format: in vivo, mouse; parameters: reduction in activated TAFs assessed by aSMA signal / reduction in VEGF signal versus vehicle-treated tumors / reduction in SDF-1/CXCL12 signal / reduction in LOXL2 signal: concentration or dose not given beside the values
# Method: To provide growing tumor tissue stock for subsequent orthotopic implantation, five- to six-week-old nude mice (NCr nu/nu) were injected subcutaneously with 2×10^6 MDA-MB-435-GFP cells (Anticancer, Inc., San Diego, Calif.) on the right flank. For this purpose, cultures of MDA-MB-435-GFP cells were harvested and dissociated by trypsinization, washed three times with cold serum-containing medium, and then kept on ice until injection. Cells were injected into the subcutaneous space of the flank of the animal in a total volume of 0.1 ml, within 30 min of harvesting. The nude mice were sacrificed to harvest tumor tissue 4 to 6 weeks after tumor cell injection for surgical orthotopic implantation (SOI) of tumor fragments.
# Tumor pieces (˜1 mm^3), extracted from subcutaneously-growing GFP-expressing breast tumors, were implanted by surgical orthotopic implantation (SOI) on the breast of female nude mice (NCr nu/nu). Treatments with AB0023 (anti-LOXL2 monoclonal antibody), M64 (anti-LOX monoclonal antibody) and vehicle (all via intraperitoneal injection) and with Taxotere (by intravenous injection) were initiated when the average primary tumor volume reached 75 mm^3. Mice were administered the antibodies at a dose of 30 mg/kg twice a week for 28 days and Taxotere, at 10 mg/kg, was administered once a week for 3 weeks.
# Body weight and tumor size were recorded weekly. At the conclusion of the study, mice were sacrificed by cervical dislocation after being anesthetized with carbon dioxide. Primary breast tumors were imaged, harvested, cut in half symmetrically and snap-frozen for histological and immunohistochemical analyses.
# The solutions used for the immunohistochemistry (IHC) protocols were obtained from Biocare Medical (Concord, Calif.) unless otherwise stated. All procedures were performed at room temperature. Slides were fixed with 4% PFA for 10 minutes and were subsequently treated with Peroxidazed-1 (Biocare Medical, Concord, Calif.) for 5 minutes. Then, the slides were background blocked with SNIPER (Biocare Medical, Concord, Calif.) for 10 minutes. Primary antibody (2-5 ug/ml final concentration) was diluted in Da Vinci Green Universal Diluent and applied to slides for 30 minutes. Slides were then rinsed in PBS-Tween-20. The Mach2 polymer kit was used for antigen detection by adding rabbit probe for 30 minutes. DAB chromagen was added to the slides for 3-5 minutes, then slides were rinsed once with deionized water. The slides were then counter-stained with hematoxylin, followed by dehydration with graded alcohol. The slides were mounted with entellan mounting medium (Electron Microscopy Sciences, Hatfield, Pa.).
# [2] = tested on: MCF7 cells; test: Induction of EMT-like phenotype by LOXL2-containing conditioned media (rhodamine-phalloidin staining); format: cell-based; settings: MDA-MB231 or Hs-578t conditioned media; BAPN up to 2 mM
# Method: Cells were seeded at 80% confluency, in an 8-chambered slide, 24 hours prior to the day of staining. After 24 hours, media was aspirated and the chambers were washed with PBS. Cells were then fixed with 4% Parafomaldehyde (PFA) for 20 minutes at room temperature and then permeabilized with 0.5% Saponin (JT Baker, Phillipsburg, N.J.) for 5 minutes at room temperature. Cells were then stained for 15 minutes at room temperature with a 1:100 dilution of rhodamine phalloidin (Invitrogen, Carlsbad, Calif.). Slides were mounted with Vectashield (Vector Laboratories, Burlingame, Calif.).
# MCF7 or SW620 cells were seeded at 50,000 cells per well of an 8-chambered culture slide in HGDMEM (high-glucose Dulbecco's modified Eagle's medium containing 4.5 g/l glucose)+10% FBS, 2 mM L-glutamine, 24 hours prior to being exposed to conditioned medium (CM). 500 uls of fresh conditioned medium from MDA MB 231 cells was added to the chambers containing MCF7 cells. The cells were incubated with the CM for 48-96 hours. Conditioned medium from MCF7 or SW620 cells was used as a negative control. After 48-96 hours incubation with CM, the cells were stained with rhodamine-phalloidin as described above.
# [3] = tested on: purified recombinant human LOXL2; test: Amplex Red assay of LOXL2 enzymatic activity; format: biochemical
# Method: A mouse anti-human LOXL2 antibody (AB0023) was obtained by immunization with full-length LOXL2 protein and purified by SEC-HPLC (Tosoh TSKGEL G3000SWXL 7.8×300). Analytical size exclusion chromatography was used to assess antibody stability and purity. Purified AB0023 was run on SDS-PAGE Coomassie (Invitrogen BT 4-12% Gels) reducing and non-reducing gels to assess purity. Potency was examined by ELISA to determine Kd, and effect on LOXL2 enzymatic activity was determined using an Amplex Red Assay (Molecular Probes/Invitrogen, Carlsbad, Calif.). Antibody concentration was measured by absorbance at 280 nm using an Extinction Coefficient Abs 0.1% of 1.4. Identity was assayed by isoelectric focusing (Invitrogen pH 3-10 IEF Gels). For safety analysis, endotoxin levels were measured at a sensitivity range of 0.01-1 EU/ml (Charles River EndoSafe PTS).
# [4] = tested on: MDA-MB-435 established primary tumors; test: MDA-MB-435 established primary tumor xenograft model; format: in vivo, mouse; settings: independent study; AB0023 5 mg/kg twice per week, BAPN 100 mg/kg daily
# [5] = biological target: T1, lysyl oxidase-like 4 (LOXL4); test: Western blot probed with AB0023 [Cont. 2) panel m]
# [6] = biological target: T2, lysyl oxidase-like 3 (LOXL3); test: Western blot probed with AB0023 [Cont. 2) panel m]
# [7] = biological target: T3, lysyl oxidase (LOX); test: Western blot probed with AB0023 [Cont. 2) panel m]
# [8] = biological target: T4, human lysyl oxidase-like 2 (LOXL2); test: cell-based or functional assay
# [9] = Pilot repeat-dose studies in cynomolgus monkeys; format: in vivo; settings: repeat dosing at 100 mg/kg
molecule,measurement,setting,value
"CC(=O)O[C@@]12CO[C@@H]1C[C@H](O)[C@@]1(C)C(=O)[C@H](O)C3=C(C)[C@@H](OC(=O)[C@H](O)[C@@H](NC(=O)OC(C)(C)C)c4ccccc4)C[C@@](O)([C@@H](OC(=O)c4ccccc4)[C@H]21)C3(C)C [Taxotere, reference compound]",levels of Beclin-1 (autophagy) in tumor cells,"[1]; mouse, in vivo",increased
same,"reduction in Sirius red staining (crosslinked collagen, desmoplasia)",[1]; tumors harvested at day 39,No significant differences
same,reduction in activated TAFs assessed by aSMA signal,[1]; tumors harvested at day 39,No significant differences
same,"reduction in tumor vasculature, CD31 signal",[1]; tumors harvested at day 39,43%
"N#CCCN [BAPN, beta-aminoproprionitrile, reference compound]",remodeling of the actin cytoskeleton induced by LOXL2-containing conditioned media,[2],not inhibited
same,mode of inhibition of LOXL2,[3],competitive inhibitor
same,inhibition of LOXL2 enzymatic activity,[3]; in vitro,inhibited
same,IC50 for inhibition of LOXL2 (in words),"[3]; in vitro, FIG. 8 panel D",low nanomolar
same,"reduction in tumor vasculature, CD31 signal",[4],no reduction
same,reduction in tumor volume after 46 days,[4],19%
B1,binding result,[5],no binding
same,binding result,[6],no binding
same,binding result,[7],no binding
same,"IC50, HUVEC tube formation assay, FIG. 4 Panel I (mean total tubule length)",[8],33.2 nM
same,apparent IC50 for inhibition of purified LOXL2 enzymatic activity,[8],~30 nM
B2,tolerability,[9],well tolerated
same,mode of inhibition of LOXL2,[3],non-competitive allosteric inhibitors
